Test results taken from patent US7256012B2, “Fluorogenic protease substrates based on dye-dimerization” (3M Innovative Properties Company, priority 1997, dated 2007).

Test system: Vibrio parahaemolyticus
Assay: Use of fluorogenic protease substrate to detect Vibrio parahaemolyticus (cleavage by trypsin-like enzyme)
Format: cell-based
Conditions: Vibrio parahaemolyticus cells, 1 mM EDTA, 50 mM phosphate buffer pH 7.2, incubated overnight; with vs without cells
Protocol: Vibrio parahaemolyticus used in these experiments was a quality control strain for the Transport Swab System of Becton Dickinson Microbiology Systems (Cockeysville, Md.). It was purchased from American Tissue Culture Collection (ATCC accession no. 49398). Cells were grown at 37° C. in nutrient broth with 3 percent sodium chloride. Ten ml of overnight culture was centrifuged. Broth was disposed and 3 ml of assay buffer added (1 mM EDTA, 50 mM phosphate buffer at pH 7.2) containing 50 μl of dual labeled conjugate of formula I, 1000 dilution (see Example 1, procedure for making labeled peptide). To ensure complete cleavage the reaction mixture was incubated overnight. Fluorescence intensity of cuvettes with and without cells was measured, (tracings C and D, respectively).

Substance: TMR-Val-Pro-Arg-Gly-Lys-TMR (XPRGX; not fully specified; TMR dye at both ends) [T-VPRGK-T]
- change in fluorescence on cleavage by the trypsin-like enzyme: increase in fluorescence
